Assay results published in PubChem BioAssay (NCI).
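How tested: cells in 96-well plates exposed to compound for 48 hours at five concentrations. TGI: total growth inhibition.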 Where a SMILES comes first, the peptide text is derived from it.

Experiments:
Assay in all cases: DTP human tumour cell line panel, 48 h
EKVX NSCLC = system: EKVX NSCLC
HCT-116 colon = system: HCT-116 colon
HT29 colon = system: HT29 colon
IGROV1 ovarian = system: IGROV1 ovarian
MALME-3M melanoma = system: MALME-3M melanoma
MCF7 breast = system: MCF7 breast
NCI/ADR-RES ovarian = system: NCI/ADR-RES ovarian
PC-3 prostate = system: PC-3 prostate
T-47D breast = system: T-47D breast
TK-10 renal = system: TK-10 renal

SMILES | TGI (EKVX NSCLC) | TGI (HCT-116 colon) | TGI (HT29 colon) | TGI (IGROV1 ovarian) | TGI (MALME-3M melanoma) | TGI (MCF7 breast) | TGI (NCI/ADR-RES ovarian) | TGI (PC-3 prostate) | TGI (T-47D breast) | TGI (TK-10 renal)
O=S(=O)(O)c1cc(N=[N+]([O-])c2cc(S(=O)(=O)O)c3ccccc3c2)cc2ccccc12 | > 100 µM | > 100 µM | > 100 µM | > 100 µM | > 100 µM | > 100 µM | > 100 µM | > 100 µM | > 100 µM | > 100 µM
Cc1ccccc1NC(=O)CC(=O)N1N=C(N2c3ccccc3Sc3ccccc32)CC1c1ccccc1 (centres undefined) | > 100 µM | > 100 µM | > 100 µM | > 100 µM | > 100 µM |  |  |  |  | > 100 µM
Nc1cc(-c2ccc(Cl)cc2)nn1-c1nc2ccccc2nc1-c1ccccc1 | > 100 µM | > 100 µM | > 100 µM | > 100 µM | > 100 µM | > 100 µM | > 100 µM | > 100 µM | > 100 µM | > 100 µM
COc1cc2c(cc1OCCCCCCCCN1C(=O)c3cccc4cccc(c34)C1=O)N=C[C@@H]1CCCN1C2=O | 35.7 µM | > 100 µM | 36.2 µM | 64.7 µM | 49.2 µM | 22.3 µM | 19.4 µM | 27.6 µM | > 100 µM | > 100 µM
N#Cc1c(N)nc2c(c1-c1ccc(Br)cc1)CSc1ccccc1-2 |  | > 100 µM | > 100 µM | > 100 µM | > 100 µM | > 100 µM | > 100 µM | 86.5 µM | 58.2 µM | > 100 µM
CCC(C)C(NC(=O)C1CCCN1C(=O)C(CC(C)C)NC(=O)C(CC(C)C)NC(=O)C(N)CC(C)C)C(=O)NC(C(=O)NCC(=O)NC(CC(N)=O)C(=O)NC(CC(C)C)C(=O)NC(CC(C)C)C(=O)NC(CC(C)C)C(N)=O)C(C)C (centres undefined) (H-LLLPIVGNLLL-NH2; configuration not given here) | > 50 µM | > 50 µM | > 50 µM | > 50 µM | > 50 µM | > 50 µM | > 50 µM | > 50 µM | > 50 µM | > 50 µM
O=C1CC2(CCC(O)(c3cccs3)C(C(=O)c3cccs3)C2)C(=O)c2ccccc2N1 (centres undefined) | > 100 µM | > 100 µM | > 100 µM | > 100 µM | > 100 µM | > 100 µM | > 100 µM | > 100 µM | > 100 µM | > 100 µM
C1=CC(=[N+]2N=C(c3ccccc3)CC2c2ccccc2)C=CC1=C1SC(c2ccccc2)(c2ccccc2)c2ccccc21 (centres undefined) | > 100 µM | > 100 µM | > 100 µM | > 100 µM | > 100 µM | > 100 µM | > 100 µM | > 100 µM | > 100 µM | > 100 µM
Cc1cc(=O)[nH]c(/N=C(\N)Nc2ccc(Cl)cc2)n1 | > 100 µM | > 100 µM | > 100 µM | > 100 µM | > 100 µM |  | > 100 µM | > 100 µM | > 100 µM | > 100 µM
C/C(N=Nc1nc2ccccc2[nH]1)=C1/C=CC=CN1O | > 100 µM | > 100 µM | > 100 µM | > 100 µM | > 100 µM | > 100 µM | > 100 µM | > 100 µM | > 100 µM | > 100 µM
CCCCCOC(=O)c1cc2cc(CCl)ccc2oc1=O | 18.4 µM | 27.4 µM | 35.4 µM | 27.8 µM | 8.33 µM | > 56.9 µM | 53.3 µM | 15.2 µM | 13.6 µM | 5.3 µM
O=C1c2ccccc2C(C2c3ccccc3C(=O)c3cc(Br)ccc32)c2ccc(Br)cc21 (centres undefined) | > 100 µM | > 100 µM | > 100 µM | > 100 µM | > 100 µM | > 100 µM | > 100 µM | > 100 µM | > 100 µM | > 100 µM
COC(CN(C=O)[C@@H](c1ccc(Cl)cc1)c1cc2ccccc2o1)OC | 34.4 µM | 32.9 µM | 36.3 µM | 30.7 µM | 11.5 µM | 34.8 µM | 41.9 µM | 45.6 µM | 33.8 µM | 33.4 µM
NC(=S)N1N=C(c2ccccc2O)CC1c1ccccc1 (centres undefined) | 70.6 µM | 28.1 µM | 28.9 µM | 48.6 µM | 42.3 µM | 20.8 µM | 50.6 µM | 22.8 µM | 68.5 µM | 78.3 µM
